{"source": "paper PMC10352257", "about": "“In vivo effects of the alpha-synuclein misfolding inhibitor minzasolmin supports clinical development in Parkinson’s disease” (NPJ Parkinson's Disease, 2023)", "key": {"Line 61 transgenic mice": {"test_system": "Line 61 transgenic mice", "experiment": "Grip strength, Line 61 transgenic mice", "type": "in vivo, mouse", "settings": "1 and 5 mg/kg, re-test after treatment, two-way ANOVA with repeated measures", "text": "A transgenic mouse model of Parkinson’s disease overexpressing human wild-type ASYN under the murine Thy-1 promoter on a mixed C57Bl/6 background was used in the present studies (commonly referred to Line 61)[49]. The Line 61 transgenic mouse model of Parkinson’s disease develops extensive accumulation of ASYN in areas relevant to Parkinson’s disease[49]–[51], neurodegeneration (as evidenced by loss of tyrosine hydroxylase[52],[53] and dopamine transporter immunoreactivity[18] in the striatum), inflammation, and both motor and non-motor functional deficits. […] The vivarium ambient room temperature was monitored daily and kept within a range of 68–72 degrees Fahrenheit. […]\nNonetheless, a baseline measurement of grip strength is always included to confirm existing deficits in Line 61 transgenic mice and to inform pseudorandomized treatment group assignment (i.e., ensuring that each treatment group started with a similar distribution of grip strength performances). […] The dependent measure, peak strength (in grams of force), was determined per trial and as an average for each animal across trials. […]"}, "[1]": {"experiment": "Mouse pharmacokinetics after single intraperitoneal dose (plasma and brain)", "type": "in vivo", "settings": "for AUC last / Cmax / AUC(0-t): mean ± SEM; for Kp / Tmax / half-life / Cmax / AUC(0-inf) / AUC(0-t): male, C57BL/6, mouse, ip; for Kp: brain and plasma, from AUCinf, read-out: brain/plasma exposure (AUC) ratio", "description": "Characterization of exposure profile and brain distribution of minzasolmin in male C57BL/6 mice was performed at UCB BioPharma SPRL (Braine l’Alleud, Belgium). All the procedures were approved by the UCB Ethics Committee for Animal Experimentation and conducted in compliance with the Helsinki declaration and the guidelines of the European Community Council directive 86/609/EEC. UCB BioPharma is fully accredited by the Association for Assessment and Accreditation of Laboratory Animal Care (AAALAC). Male C57BL/6 mice (8 weeks of age, 20–27 g), purchased from Charles River Laboratories (Toulouse, France), were dosed intraperitoneally with 1 or 5 mg/kg of minzasolmin (10 mL/kg of 40% w/v Captisol® in water). Three mice were used per dose and per time of sampling (0.25, 0.5, 1, 2.5, and 6 h). Mice were anaesthetized with isofluorane and blood was collected from the vena cava into K2EDTA tubes. Animals were then perfused through the left ventricle with 20 mL of heparinized NaCl 0.9% (20 UI/mL), rate flow 20 mL/min, 1 min perfusion time. At the end of the procedure mice were sacrificed by cervical dislocation. Brain samples were weighed and collected in cold glass vials and stored at −20 °C, until bioanalysis. All blood samples were thoroughly but gently mixed following collection and placed directly on ice then centrifuged at 4 °C, 3000 g for 15 min within 30 min after sampling. The collected plasma was stored at −20 °C, until bioanalysis. Samples were analyzed by liquid chromatography-tandem mass spectrometry (LC-MS/MS). Results of minzasolmin concentrations in plasma and brain are reported in ng/mL and ng/g respectively. Pharmacokinetic profiling was performed by non-compartmental analysis, using Phoenix WinNonlin v6.4 software (Pharsight Inc., St. Louis, MO). All computations utilized the sparse sampling method according to the experimental composite sampling regimen."}, "[2]": {"settings": "brain, 1 mg/kg single i.p., C57/Bl6 mice"}, "[3]": {"settings": "brain, 5 mg/kg single i.p., C57/Bl6 mice"}, "[4]": {"settings": "plasma, 1 mg/kg single i.p., C57/Bl6 mice"}, "[5]": {"settings": "plasma, 5 mg/kg single i.p., C57/Bl6 mice"}}, "note": "Read-outs that look alike come from different tables or passages of the source.", "data": [{"smiles": "CCCC[C@H](Cc1c[nH]c2ccccc12)NC(=O)c1cnc(N2CCN(C)CC2)s1", "note": "[minzasolmin]", "values": [{"measurement": "effect of chronic treatment on grip strength of Line 61 transgenic mice", "setting": "Line 61 transgenic mice", "result": "no statistically significant benefits"}, {"measurement": "AUC inf", "setting": "[1]; [2]", "result": 99.0, "unit": "ng·h/g"}, {"measurement": "AUC last", "setting": "[1]; [2]", "result": "93.9 ± 4.2", "unit": "ng·h/g"}, {"measurement": "AUC inf", "setting": "[1]; [3]", "result": 422, "unit": "ng·h/g"}, {"measurement": "AUC last", "setting": "[1]; [3]", "result": "394 ± 21", "unit": "ng·h/g"}, {"measurement": "time of highest brain levels after dosing", "setting": "[1]; brain, 1 and 5 mg/kg i.p.", "result": 0.5, "unit": "h"}, {"measurement": "Kp", "setting": "[1]; 1 mg/kg i.p.", "result": 0.32}, {"measurement": "Kp", "setting": "[1]; 5 mg/kg i.p.", "result": 0.26}, {"measurement": "Tmax", "setting": "[1]; brain, 1 mg/kg, brain, 1 mg/kg single i.p., C57/Bl6 mice, read-out: T max", "result": 30, "unit": "min"}, {"measurement": "Tmax", "setting": "[1]; brain, 5 mg/kg, brain, 5 mg/kg single i.p., C57/Bl6 mice, read-out: T max", "result": 30, "unit": "min"}, {"measurement": "half-life", "setting": "[1]; [2]", "result": 33.6, "unit": "min"}, {"measurement": "Cmax", "setting": "[1]; [2]", "result": "76 ± 4", "unit": "ng/g"}, {"measurement": "half-life", "setting": "[1]; [3]", "result": 36, "unit": "min"}, {"measurement": "Cmax", "setting": "[1]; [3]", "result": "292 ± 30", "unit": "ng/g"}, {"measurement": "AUC(0-inf)", "setting": "[1]; [4]", "result": 308, "unit": "ng·h/mL"}, {"measurement": "half-life", "setting": "[1]; [4]", "result": 41.4, "unit": "min"}, {"measurement": "AUC(0-t)", "setting": "[1]; [4]", "result": "307 ± 13", "unit": "ng·h/mL"}, {"measurement": "Cmax", "setting": "[1]; [4]", "result": "332 ± 18", "unit": "ng/mL"}, {"measurement": "AUC(0-inf)", "setting": "[1]; [5]", "result": 1650, "unit": "ng·h/mL"}, {"measurement": "half-life", "setting": "[1]; [5]", "result": 49.8, "unit": "min"}, {"measurement": "AUC(0-t)", "setting": "[1]; [5]", "result": "1640 ± 86", "unit": "ng·h/mL"}, {"measurement": "Cmax", "setting": "[1]; [5]", "result": "1320 ± 124", "unit": "ng/mL"}, {"measurement": "Tmax", "setting": "[1]; plasma, 1 mg/kg, plasma, 1 mg/kg single i.p., C57/Bl6 mice, read-out: T max", "result": 30, "unit": "min"}, {"measurement": "Tmax", "setting": "[1]; plasma, 5 mg/kg, plasma, 5 mg/kg single i.p., C57/Bl6 mice, read-out: T max", "result": 15, "unit": "min"}, {"measurement": "Tmax", "setting": "[1]; plasma, 5 mg/kg, plasma, 1 and 5 mg/kg i.p., read-out: time of maximum plasma concentration after dosing", "result": "15 to 30", "unit": "min"}]}]}
